From patent US20180273528A1 (LES LABORATOIRES SERVIER, priority 2015, published 2018)

Key:
[1] = target: T1, DYRK1A (Homo sapiens, UniProt Q13627); assay: Cellular DYRK1 autophosphorylation assay in U2-OS cells; assay type: cell-based; parameters: full-length, wild-type human DYRK1A (NM_001396) with an HA tag; expressed in transfected cells; host or cells: human U2-OS osteosarcoma cells, transient transfection of a pcDNA3.1 plasmid; conditions: U2-OS cells transfected with HA-tagged human DYRK1A, 5 hours exposure; read-out: IC50 (μM) P-Ser520-Dyrk1A -Cell assay
How it was run: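 IC50 derived from dose-response curves of phospho-Ser520-DYRK1A (blots normalised to total DYRK1A), quantified by either immunoblotting with chemiluminescence or Mesoscale electrochemiluminescent ELISA. Compounds applied to U2-OS cells across several concentrations for 5 hours.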

[2] = target: T2, CLK1 (Homo sapiens, UniProt P49759); assay: Kinase TR-FRET assay, CLK1; assay type: biochemical; conditions: full-length human kinase, 10 μM ATP
T2 construct: full-length human kinases from Carna Biosciences; purchased Carna Biosciences 04-126
How it was run: (§1)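 Compounds tested at 0.1 nM to 30 μM in reaction buffer; reaction stopped with 10 mM EDTA. Phosphorylated MBP detected with 1 nM Europium-labelled anti-phospho-Thr232 antibody by TR-FRET.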

[3] = target: T1, DYRK1A; assay: Kinase TR-FRET assay, DYRK1A; assay type: biochemical; parameters: full-length, wild-type human DYRK1A (NM_001396) with an HA tag; expressed in transfected cells; host or cells: human U2-OS osteosarcoma cells, transient transfection of a pcDNA3.1 plasmid; conditions: full-length human kinase, 10 μM ATP
How it was run: as §1

[4] = target: T3, DYRK1B (Homo sapiens, UniProt Q9Y463); assay: Kinase TR-FRET assay, DYRK1B; assay type: biochemical; conditions: full-length human kinase, 10 μM ATP
T3 construct: full-length human kinases from Carna Biosciences; purchased Carna Biosciences 04-131
How it was run: as §1

[5] = target: T4, CDK9 (Homo sapiens, UniProt P50750); assay: Kinase TR-FRET assay, CDK9; assay type: biochemical; conditions: full-length human kinase, 10 μM ATP
T4 construct: full-length human kinases from Carna Biosciences; purchased Carna Biosciences 04-110
How it was run: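 Full-length human CDK9 (0.9 ng/μl) incubated 100 min at room temperature with 10 μM ATP, 100 nM ULight-MBP peptide and compound (0.1 nM–30 μM) in 50 mM HEPES pH 7.4, 1 mM EGTA, 10 mM MgCl2, 2 mM DTT, 0.01% Tween20. Stopped with 10 mM EDTA, then 1 nM Eu-anti-phospho-Thr232 MBP antibody added for 1 h. TR-FRET read at 665/620 nm with 340 nm excitation.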

[6] = target: T5, His-TEV-DYRK1A Kinase domain (aa127-485) (Homo sapiens, UniProt Q13627); assay: Kinase ADP assay (ADP Hunter), DYRK1A kinase domain; assay type: biochemical; conditions: 20 μM ATP
T5 construct: His-TEV-DYRK1A Kinase domain (aa127-485); His tag (N); TEV protease cleavage site (N)
How it was run: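 Readout is ADP Hunter fluorescence at 590 nm, developed 20 min at 30 °C after the kinase step. That step ran 10 min at 30 °C in Hepes pH 7.4 (10 mM MgCl2, 1 mM EGTA, 0.02% Tween20) containing 20 μM ATP, 40 μM peptide and 20 nM enzyme plus compound.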

T3 sequence (Q9Y463 whole entry): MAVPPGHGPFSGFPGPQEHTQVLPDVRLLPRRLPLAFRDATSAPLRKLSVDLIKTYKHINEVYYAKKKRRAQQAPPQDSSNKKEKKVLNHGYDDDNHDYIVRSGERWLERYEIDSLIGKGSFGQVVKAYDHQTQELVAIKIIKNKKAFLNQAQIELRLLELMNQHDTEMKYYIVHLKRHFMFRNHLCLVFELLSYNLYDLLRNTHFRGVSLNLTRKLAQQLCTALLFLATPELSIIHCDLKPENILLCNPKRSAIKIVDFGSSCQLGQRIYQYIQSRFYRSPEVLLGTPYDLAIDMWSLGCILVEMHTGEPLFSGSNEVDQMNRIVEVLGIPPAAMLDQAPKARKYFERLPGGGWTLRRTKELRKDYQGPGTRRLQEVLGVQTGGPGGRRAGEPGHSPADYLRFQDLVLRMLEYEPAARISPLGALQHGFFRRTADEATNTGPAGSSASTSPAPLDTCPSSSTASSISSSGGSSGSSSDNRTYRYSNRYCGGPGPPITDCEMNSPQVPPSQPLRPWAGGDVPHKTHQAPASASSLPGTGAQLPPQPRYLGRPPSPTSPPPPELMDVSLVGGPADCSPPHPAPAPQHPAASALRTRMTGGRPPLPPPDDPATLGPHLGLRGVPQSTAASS
T4 sequence (P50750 whole entry): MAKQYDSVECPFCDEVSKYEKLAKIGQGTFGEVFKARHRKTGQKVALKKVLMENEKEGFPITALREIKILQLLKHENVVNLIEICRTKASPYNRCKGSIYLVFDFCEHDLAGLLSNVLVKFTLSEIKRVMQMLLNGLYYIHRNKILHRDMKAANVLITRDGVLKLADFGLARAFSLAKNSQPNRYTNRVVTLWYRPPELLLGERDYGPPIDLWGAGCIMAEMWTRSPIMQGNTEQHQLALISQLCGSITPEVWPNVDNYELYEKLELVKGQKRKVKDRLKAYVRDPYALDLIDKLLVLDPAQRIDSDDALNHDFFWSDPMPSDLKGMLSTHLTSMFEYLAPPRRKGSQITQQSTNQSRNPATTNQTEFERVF
T4 sequence (O60563 whole entry partner): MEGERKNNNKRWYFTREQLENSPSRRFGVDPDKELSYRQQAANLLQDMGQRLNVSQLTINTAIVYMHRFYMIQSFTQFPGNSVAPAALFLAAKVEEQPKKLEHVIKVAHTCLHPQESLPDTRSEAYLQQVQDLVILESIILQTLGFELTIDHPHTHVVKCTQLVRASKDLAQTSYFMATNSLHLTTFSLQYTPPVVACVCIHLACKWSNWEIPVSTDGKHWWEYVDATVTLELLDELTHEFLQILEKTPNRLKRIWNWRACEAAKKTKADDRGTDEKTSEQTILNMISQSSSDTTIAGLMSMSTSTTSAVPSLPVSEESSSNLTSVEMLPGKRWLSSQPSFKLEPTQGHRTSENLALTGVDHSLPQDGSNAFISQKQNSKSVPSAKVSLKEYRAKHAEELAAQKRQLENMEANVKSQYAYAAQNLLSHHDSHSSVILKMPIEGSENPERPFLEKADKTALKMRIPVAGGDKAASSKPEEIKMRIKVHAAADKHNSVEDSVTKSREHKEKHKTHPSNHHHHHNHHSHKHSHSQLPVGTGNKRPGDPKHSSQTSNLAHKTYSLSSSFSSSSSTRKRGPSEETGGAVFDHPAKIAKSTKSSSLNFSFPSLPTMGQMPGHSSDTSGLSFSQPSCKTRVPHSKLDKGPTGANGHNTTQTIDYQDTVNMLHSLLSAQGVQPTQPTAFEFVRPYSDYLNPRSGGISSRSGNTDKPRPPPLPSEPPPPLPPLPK
T2 sequence (P49759 1-526 isoform P49759-3): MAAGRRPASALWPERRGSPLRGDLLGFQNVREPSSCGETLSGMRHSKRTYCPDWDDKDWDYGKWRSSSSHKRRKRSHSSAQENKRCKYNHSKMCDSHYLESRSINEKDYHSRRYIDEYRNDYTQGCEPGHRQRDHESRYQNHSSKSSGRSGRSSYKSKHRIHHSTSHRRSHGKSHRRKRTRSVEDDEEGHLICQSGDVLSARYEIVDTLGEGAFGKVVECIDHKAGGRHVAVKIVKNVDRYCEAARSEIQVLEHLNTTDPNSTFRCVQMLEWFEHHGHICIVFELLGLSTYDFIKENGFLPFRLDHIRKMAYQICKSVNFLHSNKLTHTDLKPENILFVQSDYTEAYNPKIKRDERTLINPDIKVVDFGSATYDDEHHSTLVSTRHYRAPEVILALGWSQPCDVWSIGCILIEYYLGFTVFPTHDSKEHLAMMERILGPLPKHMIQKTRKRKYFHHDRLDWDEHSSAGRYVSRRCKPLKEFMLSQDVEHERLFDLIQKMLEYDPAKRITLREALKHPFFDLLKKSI

| SMILES | IC50 [1] [µM] | IC50 [2] [µM] | IC50 [3] [µM] | IC50 [4] [µM] | IC50 [5] [µM] | IC50 [6] [µM] |
| --- | --- | --- | --- | --- | --- | --- |
| Cc1nc2ccc(-c3cc(N)nc(N)c3)nc2n1CCOc1c(F)cccc1F [Example 212, 4-{3-[2-(2,6-difluorophenoxy)ethyl]-2-methyl-3H-imidazo[4,5-b]pyridin-5-yl}pyridine-2,6-diamine] | 0.083 | 0.017 | 0.003 | 0.04 | > 10 | 0.007 |
| Nc1cc(-c2ccc3nc(Cl)n(C4CCCC4)c3n2)cc(N)n1 [Example 220, 4-(2-chloro-3-cyclopentyl-3H-imidazo[4,5-b]pyridin-5-yl)pyridine-2,6-diamine] | 0.075 | 0.019 | 0.003 | 0.013 | 0.724 | 0.011 |
| N#Cc1nc2ccc(-c3cc(N)nc(N)c3)nc2n1C1CCCC1 [Example 221, 3-cyclopentyl-5-(2,6-diaminopyridin-4-yl)-3H-imidazo[4,5-b]pyridine-2-carbonitrile] | 0.043 | 0.016 | 0.027 | 0.012 | 0.317 | 0.008 |
| N#Cc1nc2ccc(-c3cc(N)nc(N)c3)nc2n1CCCC(F)(F)F [Example 226, 5-(2,6-diaminopyridin-4-yl)-3-(4,4,4-trifluorobutyl)-3H-imidazo[4,5-b]pyridine-2-carbonitrile] | 0.148 | 0.023 | 0.005 | 0.01 | 0.713 | 0.013 |

Continued by falling IC50 [1], values first:

| IC50 [1] [µM] | IC50 [2] [µM] | IC50 [3] [µM] | IC50 [4] [µM] | IC50 [5] [µM] | IC50 [6] [µM] | SMILES |
| --- | --- | --- | --- | --- | --- | --- |
| 0.244 | 0.062 | 0.018 | 0.031 | > 3 | 0.023 | N#Cc1nc2ccc(-c3cc(N)nc(N)c3)nc2n1CCOc1ccccc1 [Example 222, 5-(2,6-diaminopyridin-4-yl)-3-(2-phenoxyethyl)-3H-imidazo[4,5-b]pyridine-2-carbonitrile] |
| 0.094 | 0.028 | 0.005 | 0.007 | > 3 | 0.017 | COc1ccccc1OCCn1c(C)nc2ccc(-c3cc(N)nc(N)c3)nc21 [Example 206, 4-{3-[2-(2-methoxyphenoxy)ethyl]-2-methyl-3H-imidazo[4,5-b]pyridin-5-yl}pyridine-2,6-diamine] |
| 0.047 | 0.018 | 0.003 | 0.006 | 1.01 | 0.008 | Cc1nc2ccc(-c3cc(N)nc(N)c3)nc2n1CCOc1ccc2[nH]ccc2c1 [Example 210, 4-{3-[2-(1H-indol-5-yloxy)ethyl]-2-methyl-3H-imidazo[4,5-b]pyridin-5-yl}pyridine-2,6-diamine] |
